In series [1] the test system is basal cell carcinoma (BCC) lesions and surrounding normal skin. As to the kind of experiment: PpIX fluorescence in human BCC and surrounding normal skin by optical-fiber based system. The note with it: 20% for 4 hours, topical. It is filed as in vivo. As to the method: The PpIX fluorescence in the BCC lesions and surrounding normal skin of human patients was measured in situ by optical-fiber based system after topical application of 20% free ALA and its derivatives for various time intervals.
The PpIX fluorescence ratios between BCC lesions and surrounding normal skin after topical application of ALA or its esters (20% for 4 hours), was examined using methods described in previous examples.

Series [2] deals with cervical intraepithelial lesions (CIN). Put plainly: Fluorescence detection of cervical intraepithelial lesions using HAL. It is filed as in vivo, human. The method, then:
This study involved 32 non-pregnant women with histologically proven squamous intraepithelial lesions (CIN).
5 to 20 ml of a cold-cream containing 0.5% (w/w) HAL hydrochloride was applied locally by means of a cervical cap. Random biopsies were performed at time points ranging from 5 min to 7 hours to assess the selective accumulation of HAL, as shown by fluorescence images. Image analysis on frozen tissue sections was carried out using a Zeiss Axiophot image analysis system.
A total of 112 biopsies were obtained from 32 patients. From these biopsies approximately 2000 fluorescence images were produced. […] Immediately after the biopsies were taken, the tissue was quickly frozen in liquid nitrogen and stored at −70° C. prior to use in order to stop any formation/degradation of cellular porphyrins. Tissue sections were prepared in the dark to avoid photobleaching. The frozen tissue blocks were mounted in Tissue Tek embedding compound (BDH) and a series of sections were prepared using a cryostat. Tissue sections were mounted on glass slides and images were recorded with a grey-scale camera. A band pass filter (BP395-440 nm) was used for excitation, while a second band-pass filter was used to record the specific Pp fluorescence.

The subject of series [3] is bladder cancer cells from patient urine. As to the kind of experiment: Detection of bladder cancer cells in urine. The note with it: 40 μg/ml or 0.15 mM, 4 hours at 37° C., blue light 390-440 nm. It is filed as cell-based, human. As to the method:
Urine of a patient with bladder cancer was centrifuged (1500 rpm for 5 min) and resuspended into cell growth medium containing 10% fetal calf serum and HAL hydrochloride (40 μg/ml or 0.15 mM) for 4 hours at 37° C. in the dark. The cells fluoresced under blue light (390-440 nm) after being incubated with HAL HCl (FIG. 28). […] This was confirmed by cytology.

Series [4] concerns Human transitional cell carcinoma cells (T24). As to the kind of experiment: Induced fluorescence in T24 cells in vitro. It is filed as cell-based. The method, then:
Human transitional cell carcinoma cells (T24) were used. ALA and ALA esters were dissolved in growth medium not containing serum. Fluorescence was observed using an excitation wavelength of 410 nm and detecting emission at 640 nm.

Series [5] has as its system bladder carcinoma in situ (CIS) and other bladder tumor lesions. Put plainly: HAL fluorescence detection of bladder lesions vs. white light cystoscopy. It is filed as in vivo, human. As to the method:
Photodynamic detection of bladder carcinoma in situ (CIS) (flat cancer lesions) after exposure to a hexyl aminolevulinate composition (8 mM HAL in PBS: 4.3 mM KH2PO4, 4.3 mM Na2HPO4, 120 mM NaCl, pH 6.0) for one hour was performed and compared to white light cystoscopy in patients with bladder cancer (FIG. 31).
About 50 ml of HAL solution was instilled into the bladder. The solution was allowed to remain in the bladder for one hour. After bladder evacuation, the bladder was inspected by using a cystoscope (Storz D-Light, Karl Storz, Tuttlingen, Germany) and mapped under white light followed by inspection and mapping of all fluorescing lesions using blue light (380-450 nm) (light of wavelength of about 405 nm could have been used as the PpIX absorption spectrum includes a maximum near 405 nm). After mapping of the lesions in white and blue light separately, biopsies and resected tissue were obtained of all lesions and suspicious areas. Finally, one biopsy from normal appearing urothelium (negative in white and blue light) was taken. Tissue material was prepared by the local pathlogist and examined by both local and a central pathologist to verify the diagnosis.
In another study, an HAL composition detected 98% of tumor lesions in patients (regardless of tumor type), whereas use of white light identified only 73% of the lesions. The HAL solution composition and instillation and cystoscopy procedure is described above. The cystoscopy findings were verified by examination (by a pathologist) of 5 random biopsies taken from each patient. There were a total of 143 verified tumors in 45 patients including carcinoma in situ (CIS) and Ta or T1 lesions. HAL cystoscopy was performed in 43 of the patients with a detection rate of 96% (43/45). White light cystoscopy was performed in 33 of the patients with a detection rate of 73% (33/45).

“Also recorded” adds a separate entry of the source.

As for `CCCCCCOC(=O)CCC(=O)CN.Cl` [HAL, n-hexyl 5-aminolevulinate hydrochloride], the “PpIX fluorescence ratios between BCC lesions and surrounding normal skin (selectivity) compared with free ALA” value in series [1] is reported as “more selectively induce PpIX in BCC lesions than free ALA”. Also, the “fluorescence of cervical lesions after topical application” value in series [2] (0.5% (w/w) HAL hydrochloride cold-cream, hydrochloride) was “excellent fluorescence; also recorded: high and homogenous fluorescence in the lesions”. In addition, the “adverse reactions / tolerability” value in series [2] (0.5% cream applied to the cervix, patients, hydrochloride) is “No local or systemic adverse reactions; also recorded: well tolerated”. The “fluorescence after 5 minutes application” value in series [2] (0.5% cream, 5 minutes) is given as “low”. In series [2] (0.5% cream, 30 minutes and longer), the “fluorescence throughout the lesion at application times of 30 minutes and longer” value was “high and homogenous fluorescence throughout the lesion”. The “selectivity of fluorescence for precancerous lesions” value in series [2] (0.5% cream, cervical biopsies of CIN lesions) is given as “excellent selectivity for precancerous lesions”. In series [2] (0.5% cream, more than three hours), the “selectivity at application time more than three hours” value is “the selectivity was reduced”. Also, in series [2] (HAL 0.5% cream, 1-2 hour), the “selectivity after 1-2 hour application” value is “excellent”. Further, the “fluorescence of urine cells under blue light” value in series [3] was “only cancer cells fluoresced”. For the same compound, the “maximum fluorescence relative to the maximum induced by aminolevulinic acid” value in series [4] (same conditions) is on record as “nearly three times”. In addition, in series [4] (serum-free medium, excitation 410 nm, emission 640 nm), the “concentration inducing maximum fluorescence in cells in vitro” value was “about 13 mM”. In addition, in series [5] (8 mM HAL in PBS, one hour instillation, 218 patients for analysis), the “CIS lesion detection rate as verified by biopsies” value stood at 97%. Also, the “carcinoma in situ lesions identified in patients with CIS lesions only” value in series [5] (13 patients with CIS lesions only, 12/13) turned out to be 92%. Besides, the “detection rate of HAL cystoscopy (patients)” value in series [5] (another study, 43/45) was found to be 96%. Besides, the “tumor lesions detected (regardless of tumor type)” value in series [5] (another study, 143 verified tumors in 45 patients) worked out at 98%.

The values above are taken from patent US7530461B2, “Esters of 5-aminolevulinic acid as photosensitizing agents in photochemotherapy” (PhotoCure ASA, priority 1995, dated 2009).
